# Data reported in patent US20190364896A1, “SYNERGISTIC WEED CONTROL FROM APPLICATIONS OF PYRIDINE CARBOXYLIC ACID HERBICIDES AND ALS INHIBITORS” (Dow AgroSciences LLC, priority 2014, published 2019).
# Key:
# Experiment in all cases: Postemergence herbicidal activity, greenhouse trial (visual injury 0-100%)
# Assay type in all cases: in vivo
# [1] = test system: wild buckwheat (Polygonum convolvulus, POLCO)
# Protocol: (§1) Seeds of the desired test plant species were planted in Sun Gro MetroMix® 306 planting mixture, which typically has a pH of 6.0 to 6.8 and an organic matter content of about 30 percent, in plastic pots with a surface area of 103.2 square centimeters (cm^2). […] The plants were grown for 7-36 days (d) in a greenhouse with an approximate 14-hour (h) photoperiod which was maintained at about 23° C. during the day and 22° C. during the night. Nutrients and water were added on a regular basis and supplemental lighting was provided with overhead metal halide 1000-Watt lamps as necessary. The plants were employed for testing when they reached the second or third true leaf stage.
# (§2) Weighed amounts of technical or formulated material (emulsifiable concentrate (EC) or soluble concentrate (SL)) were dissolved in a volume of 97:3 volume per volume (v/v) acetone/dimethyl sulfoxide (DMSO) to stock solutions. […] The concentrated stock solutions were diluted with an aqueous mixture of 1.5% v/v of Agri-dex crop oil concentrate to provide the appropriate application rates. Compound requirements are based upon a 12 milliliter (mL) application volume at a rate of 187 liters per hectare (L/ha). Spray solutions of the experimental compound mixtures were prepared by adding the stock solutions to the appropriate amount of dilution solution to form a 12 mL spray solution in two-way combinations. Formulated compounds were applied to the plant material with an overhead Mandel track sprayer equipped with 8002E nozzles calibrated to deliver 187 L/ha over an application area of 0.503 square meters (m^2) at a spray height of 18 inches (43 centimeters (cm)) above average plant canopy. Control plants were sprayed in the same manner with the solvent blank. Application rates for component (a) are in g ae/ha, and application rates for component (b) are in g ai/ha.
# (§3) The treated plants and control plants were placed in a greenhouse as described above and watered by sub-irrigation to prevent wash-off of the test compounds. After 20-22 d, the condition of the test plants as compared with that of the control plants was determined visually and scored on a scale of 0 to 100 percent where 0 corresponds to no injury and 100 corresponds to complete kill. Colby's equation was used to determine the herbicidal effects expected from the mixtures. […]
# (§4) Weighed amounts of technical material were dissolved in a volume of 97:3 volume per volume (v/v) acetone/dimethyl sulfoxide (DMSO) to stock solutions. […] The concentrated stock solutions were diluted with an aqueous mixture of 1.5% v/v of Agri-dex crop oil concentrate to provide the appropriate application rates. Compound requirements are based upon a 12 milliliter (mL) application volume at a rate of 187 liters per hectare (L/ha).
# [2] = test system: nutsedge (Cyperus esculentus, CYPES); settings: Cyperus, post-emergence, read-out: % visual injury Obs; for pest or weed control: 4.375 g ai/ha
# Protocol: as §1
# as §2, with “technical” for “technical or formulated”, “material” for “material (emulsifiable concentrate (EC) or soluble concentrate (SL))”
# as §3, §2
# [3] = test system: chickweed (Stellaria media, STEME); settings: for pest or weed control: 4.375 g ai/ha
# Protocol: as §1, §2
# (§5) The treated plants and control plants were placed in a greenhouse as described above and watered by sub-irrigation to prevent wash-off of the test compounds. After 20-22 d, the condition of the test plants as compared with that of the control plants was determined visually and scored on a scale of 0 to 100 percent where 0 corresponds to no injury and 100 corresponds to complete kill. The condition of the test plants was compared with that of the control plants as determined visually and scored on a scale of 0 to 100 percent, where 0 corresponds to no injury and 100 corresponds to complete kill. Colby's equation was used to determine the herbicidal effects expected from the mixtures.
# (§6) Compound 1 was formulated as an EC and was combined with florasulam, cloransulam, diclosulam, flumetsulam, penoxsulam, or pyroxsulam. Compound 2 was formulated as an EC and was combined with florasulam or pyroxsulam. The mixtures were applied to winter wheat (TRZAW), common rice (ORYSA), maize (ZEAMX), and the phytotoxicity of the herbicidal compositions was measured. In addition, the efficacy of the herbicidal compositions on blackgrass (Alopecurus myosuroides, ALOMY), pigweed (Amaranthus retrollexus, AMARE), wild oat (Avena fatua, AVEFA), common lambsquarters (Chenopodium album L., CHEAL), thistle (Cirsium arvense CIRAR), nutsedge (Cyperus esculentus, CYPES), barnyardgrass (Echinochloa crus-galli, ECHCG), poinsettia (Euphorbia heterophylla, EPHHL), ivyleaf morning-glory (Ipomoea hederacea, IPOHE), kochia (Kochia scoparia, KCHSC), wild buckwheat (Polygonum convolvulus, POLCO), grain sorghum (Sorghum vulgare, SORVU), chickweed (Stellaria media, STEME), wild pansy (Viola tricolor, VIOTR), was evaluated.
# as §4, with “(L/ha). […]” for “(L/ha).”
# [4] = test system: thistle (Cirsium arvense, CIRAR); settings: for pest or weed control: 4.375 g ai/ha
# Protocol: as §1, §2, §3, §4
# [5] = test system: kochia (Kochia scoparia, KCHSC); settings: for pest or weed control: 4.375 g ai/ha
# Protocol: as §1, §2, §3, §4
# [6] = test system: ivyleaf morning-glory (Ipomoea hederacea, IPOHE)
# Protocol: as §1, §2, §5, §6
# as §4, with “(L/ha). […]” for “(L/ha).”
# [7] = test system: barnyardgrass (Echinochloa crus-galli, ECHCG); settings: Echinochloa crus-galli, post-emergence, read-out: % visual injury Obs
# Protocol: as §1, §2, §5, §6
# as §4, with “(L/ha). […]” for “(L/ha).”
# [8] = test system: poinsettia (Euphorbia heterophylla, EPHHL); settings: Euphorbia heterophylla, post-emergence; 4.375 g ai/ha; read-out: % visual injury Obs
# Protocol: as §1
# as §2, with “technical” for “technical or formulated”, “material” for “material (emulsifiable concentrate (EC) or soluble concentrate (SL))”
# as §3, §2
# [9] = test system: common lambsquarters (Chenopodium album L., CHEAL); settings: Chenopodium album, post-emergence, 4.375 g ai/ha; read-out: % visual injury Obs
# Protocol: as §1, §2, §5, §6
# as §4, with “(L/ha). […]” for “(L/ha).”
# [10] = test system: pigweed (Amaranthus retroflexus, AMARE); settings: for pest or weed control: 4.375 g ai/ha
# Protocol: as §1, §2, §3, §4
# [11] = test system: wild pansy (Viola tricolor, VIOTR); settings: Viola tricolor, post-emergence, VIOTR, read-out: % visual injury Obs
# Protocol: as §1, §2, §5
# as §6, with “Compound 1 was formulated as an EC and was combined with florasulam, cloransulam, diclosulam, flumetsulam, penoxsulam, or pyroxsulam.” left out
# as §4
# [12] = Stellaria media, post-emergence, read-out: % visual injury Obs
# [13] = Cirsium arvense, post-emergence, read-out: % visual injury Obs
# [14] = Amaranthus retroflexus, post-emergence, read-out: % visual injury Obs
# [15] = Bassia scoparia, post-emergence, read-out: % visual injury Obs
compound,measurement,setting,value
COC(=O)c1ccc(I)cc1S(=O)(=O)[N-]C(=O)Nc1nc(C)nc(OC)n1.[Na+],pest or weed control at 2.5 g/ha,"[1]; Fallopia convolvulus, post-emergence, POLCO, iodosulfuron 2.5 g ai/ha, read-out: % visual injury Obs",80%
COC(=O)c1csc(C)c1S(=O)(=O)NC(=O)n1nc(OC)n(C)c1=O,pest or weed control at 5 g/ha,[2]; 5 g ai/ha,70%
same,pest or weed control at 5 g/ha,"[3]; Stellaria media, post-emergence, 5 g ai/ha, read-out: % visual injury Obs",95%
same,pest or weed control at 5 g/ha,"[4]; Cirsium arvense, post-emergence, 5 g ai/ha, read-out: % visual injury Obs",50%
same,pest or weed control at 5 g/ha,"[5]; Bassia scoparia, post-emergence, 5 g ai/ha, read-out: % visual injury Obs",10%
COC(=O)c1sccc1S(=O)(=O)NC(=O)Nc1nc(C)nc(OC)n1,pest or weed control at 15 g/ha,"[2]; CYPES, thifensulfuron 15 g ai/ha",0%
same,pest or weed control at 15 g/ha,"[6]; Ipomoea hederacea, post-emergence, IPOHE, thifensulfuron 15 g ai/ha, read-out: % visual injury Obs",85%
same,pest or weed control at 15 g/ha,"[7]; ECHCG, thifensulfuron 15 g ai/ha",10%
same,pest or weed control at 15 g/ha,"[4]; Cirsium arvense, post-emergence, CIRAR, thifensulfuron 15 g ai/ha, read-out: % visual injury Obs",10%
COC(=O)c1ccccc1S(=O)(=O)NC(=O)N(C)c1nc(C)nc(OC)n1,pest or weed control at […],"[2]; CYPES, tribenuron 7.5 g ai/ha",0%
same,pest or weed control at […],"[6]; Ipomoea hederacea, post-emergence, IPOHE, tribenuron 7.5 g ai/ha, read-out: % visual injury Obs",65%
same,pest or weed control at […],"[1]; Fallopia convolvulus, post-emergence, POLCO, tribenuron 7.5 g ai/ha, read-out: % visual injury Obs",90%
same,pest or weed control at […],"[5]; Bassia scoparia, post-emergence, KCHSC, tribenuron 7.5 g ai/ha, read-out: % visual injury Obs",70%
"CCOc1nc(F)cc2nc(S(=O)(=O)Nc3c(Cl)cccc3C(=O)OC)nn12 [Cloransulam, cloransulam]",pest or weed control,[8],30%
same,pest or weed control,[2],50%
same,pest or weed control,[3]; [12],0%
same,pest or weed control,[9],0%
same,pest or weed control,[4]; [13],99%
same,pest or weed control,[10]; [14],0%
same,pest or weed control,"[1]; Fallopia convolvulus, post-emergence, 4.375 g ai/ha, read-out: % visual injury Obs",85%
same,pest or weed control,[5]; [15],0%
"CCOc1nc(F)cc2nc(S(=O)(=O)Nc3c(Cl)cccc3Cl)nn12 [Diclosulam, diclosulam]",pest or weed control,[8],60%
same,pest or weed control,[2],50%
same,pest or weed control,[3]; [12],0%
same,pest or weed control,[9],0%
same,pest or weed control,"[6]; Ipomoea hederacea, post-emergence, 4.375 g ai/ha, read-out: % visual injury Obs",93%
same,pest or weed control,[7]; 4.375 g ai/ha,30%
same,pest or weed control,[4]; [13],93%
same,pest or weed control,[10]; [14],60%
same,pest or weed control,[5]; [15],50%
"CCOc1ccccc1OS(=O)(=O)NC(=O)Nc1nc(OC)cc(OC)n1 [Ethoxysulfuron, ethoxysulfuron]",pest or weed control at 10 g/ha,[11]; ethoxysulfuron 10 g ai/ha,40%
same,pest or weed control at 10 g/ha,"[3]; Stellaria media, post-emergence, STEME, ethoxysulfuron 10 g ai/ha, read-out: % visual injury Obs",10%
same,pest or weed control at 10 g/ha,"[10]; Amaranthus retroflexus, post-emergence, AMARE, ethoxysulfuron 10 g ai/ha, read-out: % visual injury Obs",20%
same,pest or weed control at 10 g/ha,"[5]; Bassia scoparia, post-emergence, KCHSC, ethoxysulfuron 10 g ai/ha, read-out: % visual injury Obs",0%
"CCS(=O)(=O)c1nc2ccccn2c1S(=O)(=O)NC(=O)Nc1nc(OC)cc(OC)n1 [Sulfosulfuron, sulfosulfuron]",pest or weed control at 8.75 g/ha,[11]; sulfosulfuron 8.75 g ai/ha,80%
same,pest or weed control at 8.75 g/ha,"[2]; CYPES, sulfosulfuron 8.75 g ai/ha",80%
same,pest or weed control at 8.75 g/ha,"[4]; Cirsium arvense, post-emergence, CIRAR, sulfosulfuron 8.75 g ai/ha, read-out: % visual injury Obs",85%
same,pest or weed control at 8.75 g/ha,"[1]; Fallopia convolvulus, post-emergence, POLCO, sulfosulfuron 8.75 g ai/ha, read-out: % visual injury Obs",80%
halosulfuron,% visual injury Obs,"[3]; STEME, halosulfuron 17.5 g ai/ha",50%
same,% visual injury Obs,"[6]; IPOHE, halosulfuron 17.5 g ai/ha",20%
same,% visual injury Obs,"[4]; CIRAR, halosulfuron 8.75 g ai/ha",10%
same,% visual injury Obs,"[10]; AMARE, halosulfuron 17.5 g ai/ha",30%
same,% visual injury Obs,"[1]; POLCO, halosulfuron 8.75 g ai/ha",30%
same,% visual injury Obs,"[5]; KCHSC, halosulfuron 17.5 g ai/ha",0%
